This passage reports EC50 results from patent US11078198B2 (BRISTOL-MYERS SQUIBB COMPANY, priority 2017, dated 2021).

This assay addresses T1, human FXR (Homo sapiens, UniProt Q96RI1).
T1 construct: expressed in transfected cells; host or cells: HEK293 cells stably carrying a 5xGal4-response-element firefly luciferase reporter, transiently transfected with pcDNA3.1-Gal4-FXR
T1 sequence (Q96RI1 262-486 limits assumed): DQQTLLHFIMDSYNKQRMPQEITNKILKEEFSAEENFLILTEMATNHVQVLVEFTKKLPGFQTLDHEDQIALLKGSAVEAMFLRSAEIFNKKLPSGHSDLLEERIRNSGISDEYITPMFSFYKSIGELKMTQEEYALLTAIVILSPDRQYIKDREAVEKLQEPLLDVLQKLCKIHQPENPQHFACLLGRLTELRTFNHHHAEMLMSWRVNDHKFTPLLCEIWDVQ
In words: transient human FXR/Gal4-luciferase reporter assay. In kind it is cell-based. Conditions: Gal4-hFXR transfected HEK293 reporter cells; relative to 8 μM GW-4064. The gist of the method:
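Transient Gal4-hFXR LBD fusion (pcDNA3.1, Lipofectamine, overnight) expressed in a HEK293 reporter line stably bearing five Gal4 elements upstream of firefly luciferase, grown in charcoal/dextran-stripped FBS. Compound dilutions in DMSO incubated with cells overnight at 37° C, 5% CO2, before luciferase readout.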
Background: A reporter such as luciferase makes a cellular process visible.
For orientation: EC50 means the concentration at which the effect is half-maximal. `CC(C)Oc1cc(C(=O)O)nc2ccc(N3CCC4(C=C(c5c(-c6ccccc6OC(F)(F)F)noc5C5CC5)C4)CC3)cc12` [Example 106, 6-(2-(5-Cyclopropyl-3-(2-(trifluoromethoxy)phenyl)isoxazol-4-yl)-7-azaspiro[3.5]non-1-en-7-yl)-4-isopropoxyquinoline-2-carboxylic acid] returned an EC50 of 21 nM.

Consider `CCOc1cc(C(=O)O)nc2ccc(N3CCC4(C=C(c5c(-c6c(Cl)cncc6Cl)noc5C5CC5)C4)CC3)cc12` [Example 107, 6-(2-(5-Cyclopropyl-3-(3,5-dichloropyridin-4-yl)isoxazol-4-yl)-7-azaspiro[3.5]non-1-en-7-yl)-4-ethoxyquinoline-2-carboxylic acid], for which the half-maximal effective concentration (EC50) is 31 nM.

`COc1cc(C(=O)O)nc2ccc(N3CCC4(C=C(c5c(-c6ccncc6Cl)noc5C5CC5)C4)CC3)cc12` [Example 109, 6-(2-(3-(3-Chloropyridin-4-yl)-5-cyclopropylisoxazol-4-yl)-7-azaspiro[3.5]non-1-en-7-yl)-4-methoxyquinoline-2-carboxylic acid] registered an EC50 of 140 nM.

`CC(C)Oc1cc(C(=O)O)nc2ccc(N3CCC4(C=C(c5c(-c6c(Cl)cc(F)cc6Cl)noc5C5CC5)C4)CC3)cc12` [Example 110, 6-(2-(5-Cyclopropyl-3-(2,6-dichloro-4-fluorophenyl)isoxazol-4-yl)-7-azaspiro[3.5]non-1-en-7-yl)-4-isopropoxyquinoline-2-carboxylic acid] showed an EC50 of 37 nM.

Take `CC(C)Oc1cc(C(=O)O)nc2ccc(N3CCC4(C=C(c5c(-c6c(Cl)cncc6Cl)noc5C5CC5)C4)CC3)cc12` [Example 111, 6-(2-(5-Cyclopropyl-3-(3,5-dichloropyridin-4-yl)isoxazol-4-yl)-7-azaspiro[3.5]non-1-en-7-yl)-4-isopropoxyquinoline-2-carboxylic acid]: the 50% effective concentration (EC50) stood at 47 nM.

As for `COc1cc(C(=O)O)nc2ccc(N3CCC4(C=C(c5c(-c6c(Cl)cc(F)cc6Cl)noc5C5CC5)C4)CC3)cc12` [Example 112, 6-(2-(5-Cyclopropyl-3-(2,6-dichloro-4-fluorophenyl)isoxazol-4-yl)-7-azaspiro[3.5]non-1-en-7-yl)-4-methoxyquinoline-2-carboxylic acid], the EC50 worked out at 54 nM.

With `CCOc1cc(C(=O)O)nc2ccc(N3CCC4(C=C(c5c(-c6ccccc6OC(F)(F)F)noc5C5CC5)C4)CC3)cc12` [Example 113, 6-(2-(5-Cyclopropyl-3-(2-(trifluoromethoxy)phenyl)isoxazol-4-yl)-7-azaspiro[3.5]non-1-en-7-yl)-4-ethoxyquinoline-2-carboxylic acid], the response was half-maximal at 116 nM (EC50).

The molecule `O=C(O)c1ccc2nc(N3CCC4(C=C(c5c(-c6c(Cl)cccc6Cl)noc5C5CC5)C4)CC3)oc2c1` [Example 114, 2-(2-(5-Cyclopropyl-3-(2,6-dichlorophenyl)isoxazol-4-yl)-7-azaspiro[3.5]non-1-en-7-yl)benzo[d]oxazole-6-carboxylic acid] showed an EC50 of 127 nM.

In the case of `Cc1cc(N2CCC3(C=C(c4c(-c5c(Cl)cccc5Cl)noc4C4CC4)C3)CC2)ncc1C(=O)O` [Example 115, 6-(2-(5-Cyclopropyl-3-(2,6-dichlorophenyl)isoxazol-4-yl)-7-azaspiro[3.5]non-1-en-7-yl)-4-methylnicotinic acid], the EC50 is 132 nM.

For `O=C(O)c1cnc(N2CCC3(C=C(c4c(-c5c(Cl)cccc5Cl)noc4C4CC4)C3)CC2)cc1C(F)(F)F` [Example 116, 6-(2-(5-Cyclopropyl-3-(2,6-dichlorophenyl)isoxazol-4-yl)-7-azaspiro[3.5]non-1-en-7-yl)-4-(trifluoromethyl)nicotinic acid], a half-maximal effect (EC50) was put at 135 nM.

In turn, `Cn1cc(C(=O)O)c2cnc(N3CCC4(C=C(c5c(-c6c(Cl)cccc6Cl)noc5C5CC5)C4)CC3)cc21` [Example 117, 6-(2-(5-Cyclopropyl-3-(2,6-dichlorophenyl)isoxazol-4-yl)-7-azaspiro[3.5]non-1-en-7-yl)-1-methyl-1H-pyrrolo[3,2-c]pyridine-3-carboxylic acid] displayed an EC50 of 139 nM.

Take `O=C(O)c1cnc(N2CCC3(C=C(c4c(-c5c(Cl)cccc5Cl)noc4C4CC4)C3)CC2)nc1` [Example 118, 2-(2-(5-Cyclopropyl-3-(2,6-dichlorophenyl)isoxazol-4-yl)-7-azaspiro[3.5]non-1-en-7-yl)pyrimidine-5-carboxylic acid]: the response was half-maximal at 171 nM (EC50).

As for `O=C(O)c1cnc(N2CCC3(C=C(c4c(-c5c(Cl)cccc5Cl)noc4C4CC4)C3)CC2)nc1C(F)(F)F` [Example 119, 2-(2-(5-Cyclopropyl-3-(2,6-dichlorophenyl)isoxazol-4-yl)-7-azaspiro[3.5]non-1-en-7-yl)-4-(trifluoromethyl)pyrimidine-5-carboxylic acid], the half-maximal effective concentration (EC50) was found to be 316 nM.

`Cc1cc(C(=O)O)nc(N2CCC3(C=C(c4c(-c5c(Cl)cccc5Cl)noc4C4CC4)C3)CC2)n1` [Example 120, 2-(2-(5-Cyclopropyl-3-(2,6-dichlorophenyl)isoxazol-4-yl)-7-azaspiro[3.5]non-1-en-7-yl)-6-methylpyrimidine-4-carboxylic acid]: the midpoint of the response, the EC50, lay at 1390 nM.

In turn, `Cc1cc(C(=O)O)cnc1N1CCC2(C=C(c3c(-c4c(Cl)cccc4Cl)noc3C3CC3)C2)CC1` [Example 121, 6-(2-(5-Cyclopropyl-3-(2,6-dichlorophenyl)isoxazol-4-yl)-7-azaspiro[3.5]non-1-en-7-yl)-5-methylnicotinic acid] showed a half-maximal effective concentration (EC50) of 2590 nM.

For the molecule `O=C(O)c1ccc2nc(N3CCC4(C=C(c5c(-c6c(Cl)cccc6Cl)noc5C5CC5)C4)CC3)ccc2c1` [Example 122, 2-(2-(5-Cyclopropyl-3-(2,6-dichlorophenyl)isoxazol-4-yl)-7-azaspiro[3.5]non-1-en-7-yl)quinoline-6-carboxylic acid], the 50% effective concentration (EC50) stood at 40 nM.

In the case of `O=C(O)c1ccn2nc(N3CCC4(C=C(c5c(-c6c(Cl)cccc6Cl)noc5C5CC5)C4)CC3)ncc12` [Example 123, 2-(2-(5-Cyclopropyl-3-(2,6-dichlorophenyl)isoxazol-4-yl)-7-azaspiro[3.5]non-1-en-7-yl)pyrrolo[2,1-f][1,2,4]triazine-5-carboxylic acid], it took 40 nM to reach a half-maximal effect (EC50).

`Cc1nc(N2CCC3(C=C(c4c(-c5c(Cl)cccc5Cl)noc4C4CC4)C3)CC2)ccc1C(=O)O` [Example 124, 6-(2-(5-Cyclopropyl-3-(2,6-dichlorophenyl)isoxazol-4-yl)-7-azaspiro[3.5]non-1-en-7-yl)-2-methylnicotinic acid] yielded an EC50 of 78 nM.

Molecule `Cn1nc(C(=O)O)c2ccc(N3CCC4(C=C(c5c(-c6c(Cl)cccc6Cl)noc5C5CC5)C4)CC3)cc21` [Example 125, 6-(2-(5-Cyclopropyl-3-(2,6-dichlorophenyl)isoxazol-4-yl)-7-azaspiro[3.5]non-1-en-7-yl)-1-methyl-1H-indazole-3-carboxylic acid] registered a half-maximal effective concentration (EC50) of 96 nM.

Molecule `O=C(O)c1nc(C(F)(F)F)n2cc(N3CCC4(C=C(c5c(-c6c(Cl)cccc6Cl)noc5C5CC5)C4)CC3)ccc12` [Example 126, 6-(2-(5-Cyclopropyl-3-(2,6-dichlorophenyl)isoxazol-4-yl)-7-azaspiro[3.5]non-1-en-7-yl)-3-(trifluoromethyl)imidazo[1,5-a]pyridine-1-carboxylic acid] returned a 50% effective concentration (EC50) of 102 nM.
